Patent US10889573B2, “Anthelmintic quinoline-3-carboxamide derivatives” (Bayer Animal Health GMBH, priority 2016, dated 2021)

How the values were obtained:
[1] = tested on: Nippostrongylus brasiliensis; assay: In vitro assay 2: Nippostrongylus brasiliensis (NIPOBR), acetylcholine esterase readout; conditions: read-out: activity (reduction of AChE compared to negative control); for inhibition at 1 µg/mL: 1 μg/ml; for inhibition at 10 µg/mL: 10 μg/ml
How it was run: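 Readout was acetylcholine esterase activity released into the medium, compared with negative control, after exposing adult worms to compounds at final 10 ppm (10 μg/ml) or 1 ppm (1 μg/ml). Worms were first washed in antibiotic/amphotericin B-containing saline; compounds were dissolved in DMSO.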

Cooperia curticei = conditions: Cooperia curticei, 120 h, read-out: activity (larval mortality)
Description: In Vitro Assay 6: Cooperia curticei (COOPCU L3)
Solvent: dimethyl sulfoxide
Approximately 40 nematode larvae (Cooperia curticei) are transferred into a test tube containing the compound solution.
After 5 days percentage of larval mortality is recorded. 100% efficacy means all larvae are killed; 0% efficacy means no larvae are killed.

[2] = tested on: Dirofilaria immitis third-stage larvae; assay: In vitro assay 4: Dirofilaria immitis (DIROIM L4), motility; conditions: 72 h, read-out: EC50 (reduction of motility)
[3] = tested on: Litomosoides sigmodontis third-stage larvae; conditions: 72 h, read-out: EC50 (reduction of motility)
Description: In Vitro Assay 5: Litomosoides sigmodontis (LTMOSI L3)
10 Litomosoides sigmodontis third-stage larvae, which were freshly isolated from the pleural cavity of an infected rodent, were added to wells of a microtitre plate containing a nutrient medium and the test compound in DMSO. Compounds were tested in concentration-response assay in duplicate. Larvae exposed to DMSO and no test compounds were used as negative controls. Larvae were evaluated after 72 h of incubation with the compound. Efficacy was determined as the reduction of motility in comparison to the negative control. Based on the evaluation of a wide concentration range, concentration-response curves as well as EC50-values were calculated.

C. elegans Slo-1a = C. elegans Slo-1a (Caenorhabditis elegans, UniProt Q95V25); conditions: pE50 (negative decadic logarithm of EC50), CHO cells expressing C. elegans Slo-1a, voltage sensitive dye
Chain of C. elegans Slo-1a (Q95V25 whole entry): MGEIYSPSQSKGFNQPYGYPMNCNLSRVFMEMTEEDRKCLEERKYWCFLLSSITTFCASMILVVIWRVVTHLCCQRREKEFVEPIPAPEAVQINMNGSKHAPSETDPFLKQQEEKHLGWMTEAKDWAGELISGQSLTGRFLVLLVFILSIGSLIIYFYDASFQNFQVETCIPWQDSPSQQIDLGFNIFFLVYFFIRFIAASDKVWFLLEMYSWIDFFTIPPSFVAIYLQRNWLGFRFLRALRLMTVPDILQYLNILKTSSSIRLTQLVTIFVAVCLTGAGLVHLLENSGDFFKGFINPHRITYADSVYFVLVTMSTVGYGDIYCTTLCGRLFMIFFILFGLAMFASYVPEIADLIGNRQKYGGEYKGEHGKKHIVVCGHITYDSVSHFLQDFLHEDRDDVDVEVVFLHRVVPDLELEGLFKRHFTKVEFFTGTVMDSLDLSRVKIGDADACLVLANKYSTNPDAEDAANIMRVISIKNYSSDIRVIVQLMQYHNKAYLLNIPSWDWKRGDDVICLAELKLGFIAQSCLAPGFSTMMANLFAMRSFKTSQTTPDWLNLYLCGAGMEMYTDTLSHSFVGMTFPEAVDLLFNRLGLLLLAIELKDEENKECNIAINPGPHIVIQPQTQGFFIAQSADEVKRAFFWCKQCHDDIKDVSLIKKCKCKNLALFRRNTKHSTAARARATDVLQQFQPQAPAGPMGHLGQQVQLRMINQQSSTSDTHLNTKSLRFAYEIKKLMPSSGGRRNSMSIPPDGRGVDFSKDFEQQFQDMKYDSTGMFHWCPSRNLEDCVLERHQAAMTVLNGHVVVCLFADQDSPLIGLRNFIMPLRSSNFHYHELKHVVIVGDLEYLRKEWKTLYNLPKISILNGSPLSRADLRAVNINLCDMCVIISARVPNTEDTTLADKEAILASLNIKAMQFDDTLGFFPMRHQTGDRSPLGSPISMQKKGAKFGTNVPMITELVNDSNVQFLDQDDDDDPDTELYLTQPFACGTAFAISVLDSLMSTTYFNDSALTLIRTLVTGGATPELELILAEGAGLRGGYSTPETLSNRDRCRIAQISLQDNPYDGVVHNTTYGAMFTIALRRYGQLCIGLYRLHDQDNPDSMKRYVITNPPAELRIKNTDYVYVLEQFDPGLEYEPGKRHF

[4] = tested on: Dirofilaria immitis microfilariae; assay: In vitro assay 3: Dirofilaria immitis microfilariae (DIROIM L1), motility; conditions: 72 h, read-out: EC50 (reduction of motility), 72 h incubation
Haemonchus contortus = conditions: 120 h, read-out: activity (larval mortality)
Description: In Vitro Assay 7: Haemonchus contortus (HAEMCO L3)
Solvent: dimethyl sulfoxide
Approximately 40 larvae of the red stomach worm (Haemonchus contortus) are transferred into a test tube containing compound solution.
After 5 days the percentage of larval mortality is recorded. 100% efficacy means all larvae are killed, 0% efficacy means no larvae are killed.

[5] = log P by HPLC on reversed phase columns (Method L0)
Description: Measurement of log P values was performed according to EEC directive 79/831 Annex V.A8 by HPLC (High Performance Liquid Chromatography) on reversed phase columns with the following methods: • ^[a] log P value is determined by measurement of LC-UV, in an acidic range, with 0.1% formic acid in water and acetonitrile as eluent (linear gradient from 10% acetonitrile to 95% acetonitrile). • ^[b] log P value is determined by measurement of LC-UV, in a neutral range, with 0.001 molar ammonium acetate solution in water and acetonitrile as eluent (linear gradient from 10% acetonitrile to 95% acetonitrile).
Calibration was done with straight-chain alkan-2-ones (with 3 to 16 carbon atoms) with known log P values (measurement of log P values using retention times with linear interpolation between successive alkanones).

| Structure (SMILES) | inhibition at 1 µg/mL [1] | inhibition at 10 µg/mL [1] | mortality at 4 ppm (Cooperia curticei) | mortality at 20 ppm (Cooperia curticei) | EC50 [2] | EC50 [3] | EC50 (C. elegans Slo-1a) | EC50 [4] | mortality at 4 ppm (Haemonchus contortus) | mortality at 20 ppm (Haemonchus contortus) | chromatographic logP [5] |
| --- | --- | --- | --- | --- | --- | --- | --- | --- | --- | --- | --- |
| CN(C)c1c(C(=O)N[C@H]2CCOc3ccccc32)cnc2c(-c3cc(Cl)ccc3F)cccc12 [Example 37] | > 80% | > 80% | 100% | 100% | < 0.1 µg/mL | < 0.1 µg/mL | < 3.16 nM | < 0.1 µg/mL | 100% | 100% |  |
| O=C(N[C@H]1CCOc2ccccc21)c1cnc2c(-c3cc(Cl)cc(Cl)c3)cccc2c1N1CCOCC1 [Example 17] | > 80% | > 80% | 100% | 100% | < 0.1 µg/mL | < 0.1 µg/mL | < 3.16 nM | < 0.1 µg/mL | 100% | 100% |  |
| COc1c(F)ccc(-c2cccc3c(N4CCOCC4)c(C(=O)N[C@H]4CCOc5ccccc54)cnc23)c1F [Example 53] | > 80% | > 80% | 100% | 100% | < 0.1 µg/mL | < 0.1 µg/mL | < 3.16 nM | < 0.1 µg/mL | 80% | 100% |  |
| CCc1c(C(=O)N[C@H]2CCOc3ccccc32)cnc2c(-c3cc(Cl)cc(Cl)c3)cccc12 [Example 350, 8-(3,5-dichlorophenyl)-N-[(4S)-3,4-dihydro-2H-chromen-4-yl]-4-ethyl quino-line-3-carboxamide] | > 80% |  | 100% | 100% | < 0.1 µg/mL | < 0.1 µg/mL | < 3.16 nM | < 0.1 µg/mL | 100% | 100% | 5.06 |
| O=C(N[C@H]1CCOc2ccccc21)c1cnc2c(-c3cc(Cl)cc(Cl)c3)cccc2c1N1CC(F)(F)C1 [Example 394] | > 80% |  |  | 80% | < 0.1 µg/mL | < 0.1 µg/mL | 3.16 to 31.6 nM | < 0.1 µg/mL | 80% | 80% |  |
| O=C(N[C@H]1CCOc2ccccc21)c1cnc2c(-c3cccc(Cl)c3Cl)cccc2c1N1CCOCC1 [Example 52, 8-(2,3-dichlorophenyl)-N-[(4S)-3,4-dihydro-2H-chromen-4-yl]-4-(morpholin-4-yl)quinoline-3-carboxamide] | > 80% | > 80% | 100% | 100% | < 0.1 µg/mL | < 0.1 µg/mL | < 3.16 nM | < 0.1 µg/mL | 100% | 100% |  |
| CNc1c(C(=O)N[C@H]2CCOc3ccccc32)cnc2c(-c3cc(Cl)cc(Cl)c3)cccc12 [Example 24] | > 80% | > 80% | 100% | 100% | < 0.1 µg/mL | < 0.1 µg/mL | < 3.16 nM | < 0.1 µg/mL | 100% | 100% |  |
| CCOc1c(C(=O)N[C@H]2CCOc3ccccc32)cnc2c(-c3cc(Cl)cc(Cl)c3)cccc12 [Example 341] | > 80% | > 80% | 90% | 100% | < 0.1 µg/mL | < 0.1 µg/mL | < 3.16 nM | < 0.1 µg/mL | 80% | 80% |  |
| O=C(N[C@H]1CCOc2ccccc21)c1cnc2c(-c3cc(F)cc(Cl)c3)c(F)ccc2c1N1CCOCC1 [Example 143] | > 80% | > 80% | 100% | 100% | < 0.1 µg/mL | < 0.1 µg/mL | < 3.16 nM | < 0.1 µg/mL | 100% | 100% |  |
